Measured values published in patent publication US20070086956A1, “Method for accelerating the rate of mucociliary clearance” (BAYER AKTIENGESELLSCHAFT, priority 1998, published 2007).
Read-outs that look alike come from different tables or passages of the source.

Experiments:
[1] = biological target: Bovine chymotrypsin (Bos taurus, UniProt P00766); assay: Inhibition of chymotrypsin, Ki; format: biochemical
[2] = biological target: T1, human plasma kallikrein (Homo sapiens, UniProt P03952); assay: Inhibition of human plasma kallikrein, Ki; format: biochemical
T1 construct: purchased Sigma (St. Louis, Mo.)
T1 sequence (P03952 391-638 limits assumed): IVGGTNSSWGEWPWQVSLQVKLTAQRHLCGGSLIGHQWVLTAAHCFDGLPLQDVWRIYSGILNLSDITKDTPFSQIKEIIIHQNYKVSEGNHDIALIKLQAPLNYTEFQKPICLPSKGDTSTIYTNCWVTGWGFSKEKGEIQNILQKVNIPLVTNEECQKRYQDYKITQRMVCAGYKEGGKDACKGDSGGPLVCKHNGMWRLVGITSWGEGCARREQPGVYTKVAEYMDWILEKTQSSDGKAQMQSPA
T1 sequence (P03952 20-390 partner limits assumed): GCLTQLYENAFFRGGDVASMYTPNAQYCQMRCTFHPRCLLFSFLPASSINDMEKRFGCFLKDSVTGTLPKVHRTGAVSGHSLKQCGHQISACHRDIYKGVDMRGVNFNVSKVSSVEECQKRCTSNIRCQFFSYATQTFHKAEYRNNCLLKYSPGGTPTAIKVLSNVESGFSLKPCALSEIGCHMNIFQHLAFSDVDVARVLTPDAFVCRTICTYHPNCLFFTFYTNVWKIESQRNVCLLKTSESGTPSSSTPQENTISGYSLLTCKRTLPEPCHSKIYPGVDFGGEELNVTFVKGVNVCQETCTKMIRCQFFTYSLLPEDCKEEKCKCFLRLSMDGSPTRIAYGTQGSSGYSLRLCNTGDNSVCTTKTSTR
Method: (§1) After 5 min. at 37° C., 15 μl of 2 mM GPK-AMC was added and the change in fluorescence (as above) was monitored. […] After 5 min. incubation at 37° C., 25 μl of 20 mM GPK-AMC was added and the change in fluorescence monitored. […] After 5 min. at 37° C. 15 μl of 20 mM PFR-AMC was added and the change in fluorescence monitored.
(§2) After 30 min. incubation at 37° C., 25 μl of 20 mM GPK-AMC was added and the change in fluorescence monitored. […] After 30 min. at 37° C., 5 μl of 20 mM PFR-AMC was added and the change in fluorescence monitored.

[3] = biological target: T2, human plasmin (Homo sapiens, UniProt P00747); assay: Inhibition of human plasmin, Ki; format: biochemical; conditions: Table 3; Human Plasmin (50 pM); GPK-AMC (0.5 mM)
T2 construct: purchased Sigma (St. Louis, Mo.)
T2 sequence (P00747 581-810 limits assumed): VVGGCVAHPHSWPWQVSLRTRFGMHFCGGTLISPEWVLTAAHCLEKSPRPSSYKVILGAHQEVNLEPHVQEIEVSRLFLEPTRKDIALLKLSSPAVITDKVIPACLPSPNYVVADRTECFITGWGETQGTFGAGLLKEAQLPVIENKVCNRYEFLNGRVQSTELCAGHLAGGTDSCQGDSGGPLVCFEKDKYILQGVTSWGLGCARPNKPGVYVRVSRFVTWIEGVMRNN
T2 sequence (P00747 97-580 partner limits assumed): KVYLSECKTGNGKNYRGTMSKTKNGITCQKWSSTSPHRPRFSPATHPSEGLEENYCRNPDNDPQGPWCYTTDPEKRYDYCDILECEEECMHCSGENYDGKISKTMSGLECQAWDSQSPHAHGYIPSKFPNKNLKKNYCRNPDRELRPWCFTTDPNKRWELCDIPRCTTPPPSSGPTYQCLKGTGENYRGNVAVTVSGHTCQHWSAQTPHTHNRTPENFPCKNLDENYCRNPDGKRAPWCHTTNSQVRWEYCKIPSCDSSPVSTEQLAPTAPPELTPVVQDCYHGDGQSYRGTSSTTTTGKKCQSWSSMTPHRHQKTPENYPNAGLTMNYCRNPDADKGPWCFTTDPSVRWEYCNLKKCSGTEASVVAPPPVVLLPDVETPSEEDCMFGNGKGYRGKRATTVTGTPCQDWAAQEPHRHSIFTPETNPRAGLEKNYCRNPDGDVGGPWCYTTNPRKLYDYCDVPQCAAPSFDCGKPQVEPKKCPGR
Method: as §1, §2

[4] = biological target: T3, human neutrophil elastase (Homo sapiens, UniProt P08246); assay: Inhibition of human neutrophil elastase, Ki (Dixon plots); format: biochemical; conditions: Table 3; Human Neutrophil Elastase (19 nM)
T3 sequence (P08246 30-267): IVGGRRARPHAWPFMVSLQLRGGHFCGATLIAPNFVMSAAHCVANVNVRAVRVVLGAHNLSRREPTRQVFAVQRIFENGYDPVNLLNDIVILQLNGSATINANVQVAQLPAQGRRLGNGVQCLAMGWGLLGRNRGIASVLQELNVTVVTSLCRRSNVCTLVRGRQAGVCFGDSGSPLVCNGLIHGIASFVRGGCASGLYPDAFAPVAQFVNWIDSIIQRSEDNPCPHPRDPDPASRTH
Method: […] Ki values were determined from Dixon plots of the form 1/V versus performed at two different substrate concentrations (Dixon et al., 1979).

[5] = biological target: T4, human tissue kallikrein (Homo sapiens, UniProt P06870); assay: Inhibition of human tissue kallikrein, Ki; format: biochemical; conditions: Table 3; Human Tissue Kallikrein (0.35 nM); PFR-AMC (10 μM)
T4 construct: purchased Bayer, Germany
T4 sequence (P06870 25-262): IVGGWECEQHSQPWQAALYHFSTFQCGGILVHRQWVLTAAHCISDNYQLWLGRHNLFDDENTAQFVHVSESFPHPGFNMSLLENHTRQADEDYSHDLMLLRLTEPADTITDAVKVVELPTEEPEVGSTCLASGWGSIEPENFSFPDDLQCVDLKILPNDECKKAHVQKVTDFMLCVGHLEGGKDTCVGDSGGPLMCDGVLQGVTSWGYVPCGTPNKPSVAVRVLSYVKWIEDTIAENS
Method: After 5 min. at 37° C., 5 ul of 2 mM PFR-AMC was added achieving 10 uM final and the change in fluorescence monitored. The Km for PFR-AMC with human tissue kallikrein under the conditions employed was 5.7 uM.
After 5 min. at 37° C., 5 μl of 2 mM PFR-AMC was added and the change in fluorescence monitored.
After 5 min. at 37° C., 5 ul of 2 mM PFR-AMC was added achieving 10 uM final concentration and the change in fluorescence monitored.

[6] = biological target: T5, human factor Xa (Homo sapiens, UniProt P00742); assay: Inhibition of human factor Xa; format: biochemical; conditions: Table 3; factor Xa (0.87 nM); LGR-AMC (0.6 mM)
T5 construct: purchased American Diagnostica, Inc, Greenwich, Conn
T5 sequence (P00742 235-488 limits assumed): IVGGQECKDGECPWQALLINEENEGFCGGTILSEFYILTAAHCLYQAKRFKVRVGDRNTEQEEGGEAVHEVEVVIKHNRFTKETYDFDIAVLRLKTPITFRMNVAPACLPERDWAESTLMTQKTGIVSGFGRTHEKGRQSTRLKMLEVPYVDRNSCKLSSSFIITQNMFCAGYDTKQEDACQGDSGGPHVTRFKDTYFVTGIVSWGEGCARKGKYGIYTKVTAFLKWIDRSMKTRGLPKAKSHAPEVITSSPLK
T5 sequence (P00742 41-179 partner limits assumed): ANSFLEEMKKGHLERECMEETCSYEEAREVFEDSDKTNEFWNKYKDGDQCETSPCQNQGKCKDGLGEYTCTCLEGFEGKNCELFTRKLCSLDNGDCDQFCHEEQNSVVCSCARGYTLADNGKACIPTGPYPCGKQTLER
Method: (§3) After 5 min. at 37° C., 30 ul of 20 mM LGR-AMC (Sigma) was added and the change in fluorescence monitored. […] After 5 min. at 37° C., 35 ul of 20 mM GGR-AMC (Sigma) was added and the change in fluorescence monitored.

[7] = biological target: T6, human urokinase (Homo sapiens, UniProt P00749); assay: Inhibition of human urokinase, Ki; format: biochemical; conditions: Table 3, GGR-AMC (0.7 mM)
T6 construct: purchased Sigma
Method: as §3

[8] = system: human CF bronchial epithelial cells; assay: Short circuit current (Isc) in cultured human cystic fibrosis bronchial epithelial cells; format: cell-based
Method: HBE cells were isolated from CF patient lung transplant tissue and grown in collagen coated flasks for one week. The cells were then passaged and seeded onto collagen coated Costar Transwell filters (0.33 cm2) and grown in DMEM/F12 media supplemented with 2% Ultroser G. Cells were grown at an air liquid interface and used 2 to 4 weeks after seeding:
Cells on the Transwell filters were mounted in modified Costar Ussing chambers and studied under Isc conditions. […] Isc was recorded for 100 minutes and then the apical bath fluid was exchanged with fresh buffer. Trypsin (100 BAEE units/mL) was added to the apical side and Isc recorded for 10 minutes. Amiloride (10 uM) was then added to the apical side and Isc was recorded for a further 10 minutes.
HBE cells were isolated from CF patient lung transplant tissue and grown in collagen coated flasks for one week. The cells were then passaged and seeded onto collagen coated Costar Transwell filters (0.33 cm^2) and grown in DMEM/F12 media supplemented with 2% Ultroser G. Cells were grown at an air liquid interface and used 2 to 4 weeks after seeding.
Cells on the Transwell filters were mounted in modified Costar Ussing chambers and studied under Isc conditions. […] Isc was recorded for 90 minutes and then amiloride (10 uM) was added and Isc was recorded for a further 10 minutes. The apical bath fluid was then exchanged with fresh buffer, and Isc was recorded for a further 15 minutes. Trypsin (1 uM) was added to the apical side and Isc recorded for 15 minutes. Amiloride (10 uM) was then added to the apical side and Isc was recorded for a further 10 minutes.

[9] = system: guinea pig trachea; assay: Tracheal mucus velocity (TMV) in the guinea-pig; format: in vivo
Method: The aim of this study was to investigate the effect of the Kunitz family serine protease inhibitor Bikunin on guinea-pig tracheal mucus velocity 1.5 hours post treatment. This agent was delivered into the cephalad trachea by topical instillation. TMV was monitored 1.5 hours later for 60 mins. The procedure used in this Example is described in Newton et al. in “Cila, Mucus and Mucociliary Interactions,” Ed., Baum, G. L. et al., Marcel Dekker, New York, 1998; Newton et al., Ped. Pulm. S17, Abs. 364, 1998). […]
TMV was monitored using a lead collimated miniature Beta particle detector probe arranged to detect the radioactivity emitted from an injected aliquot of ^32P-labelled Saccharomyces cerevisiae as it was transported on the tracheal mucociliary layer of an anaesthetized guinea pig (Newton and Hall 1998) FIG. 16(a) illustrates the arrangement of the syringe and beta probe. FIG. 16(b) illustrates the counts detected by the probe as the ^32P-labelled S. cerevisiae is transported along the tracheal mucociliary layer. […]
The aim of this comparative study was to investigate the effect of hypertonic saline (14.4%×5 min) on guinea-pig tracheal mucus velocity. […] TMV was monitored immediately and every 15 minutes for 30 minutes. […]

[10] = system: guinea pig trachea; conditions: 10 mM, 20 minute aerosol; 15 minutes after; n=8 (Newton et al 1998); cited from earlier work
[11] = system: diseased patients; conditions: inhalation; diseased patients (Robinson et al 1997; App et al 1990); cited from earlier work
[12] = system: human bronchial epithelial cell (HBE); assay: Short circuit current (Isc) in cultured human bronchial epithelial (HBE) cells, Ussing chamber; format: cell-based; conditions: for sodium current: 0.5 to 5 ug/mL (0.5, 1.5 and 5 ug/mL), 90 minute period
Method: Tertiary HBE cell monolayer grown to confluence were mounted in modified Ussing chambers, immersed in Krebs buffer (KBR) solution and bubbled with 95% O2/5% CO2 warmed to 37 C.
Cells were left to equilibrate for 20 minutes before calibrating for background noise and fluid resistance. Transepithelial potential difference was then clamped to 0 mV using a WPI EVC 4000 voltage clamp. Ag/AgCl electrodes were used to monitor Isc. […] Once a response to amiloride was seen, it was washed out with KBR solution. […] 90 minutes following agent treatment, amiloride (10 uM) was added. Once the current was stable forskolin (10 uM) and then bumetanide (100 uM) was added.
Tertiary HBE cell monolayers grown to confluence were mounted in modified Ussing chambers, immersed in Krebs buffer (KBR) solution and bubbled with 95% O2/5% CO2 warmed to 37 C.
Cells were left to equilibrate for 20 minutes before calibrating for background noise and fluid resistance. Transepithelial potential difference was then clamped to 0 mV using a WPI EVC 4000 voltage clamp. Ag/AgCI electrodes were used to monitor Isc. […] Once a response to amiloride was seen, it was washed out with KBR solution. […] 90 minutes following agent treatment, amiloride (10 uM) was added.

[13] = system: A6 cells; conditions: exposure of the apical membrane (Vallet et al 1997; Chraibi et al 1998), cited from earlier work
[14] = system: allergic sheep; conditions: cited from earlier work

CC[C@H](C)[C@@H]1NC(=O)[C@H](Cc2ccccc2)NC(=O)[C@H](CC(N)=O)NC(=O)[C@H](CC(N)=O)NC(=O)[C@@H]2CSSC[C@@H]3NC(=O)[C@H](C)NC(=O)[C@H](CCC(=O)O)NC(=O)[C@H](CCC(=O)O)NC(=O)[C@H](CO)NC(=O)[C@H](CCCNC(=N)N)NC(=O)[C@H](Cc4ccc(O)cc4)NC(=O)[C@H](CO)NC(=O)[C@H](CC(N)=O)NC(=O)[C@H](CCCCN)NC(=O)[C@H](CC(N)=O)NC(=O)CNC(=O)[C@H](CCCNC(=N)N)NC(=O)[C@H](CSSC[C@H](NC(=O)[C@@H]4CCCN4C(=O)CNC(=O)[C@H]([C@@H](C)O)NC(=O)[C@H](C(C)C)NC(=O)[C@H](C)NC(=O)[C@H](CC(N)=O)NC(=O)[C@H](C)NC(=O)[C@H]([C@@H](C)O)NC(=O)[C@@H](NC(=O)[C@H](Cc4ccc(O)cc4)NC(=O)[C@H](CCC(=O)O)NC(=O)[C@H](CCC(=O)O)NC(=O)[C@@H](N)Cc4ccc(O)cc4)CSSC[C@@H](C(=O)N[C@@H](Cc4ccccc4)C(=O)N[C@@H](CCCNC(=N)N)C(=O)N[C@@H](CCC(N)=O)C(=O)O)NC(=O)[C@H](CCCNC(=N)N)NC(=O)[C@H](CC(C)C)NC(=O)[C@H](CCSC)NC3=O)C(=O)N[C@@H](CCCNC(=N)N)C(=O)N[C@@H](C)C(=O)N[C@@H](CO)C(=O)N[C@@H](Cc3ccccc3)C(=O)N3CCC[C@H]3C(=O)N[C@@H](CCCNC(=N)N)C(=O)N[C@@H](Cc3c[nH]c4ccccc34)C(=O)N[C@@H](Cc3ccc(O)cc3)C(=O)N[C@@H](Cc3ccccc3)C(=O)N[C@@H](CC(=O)O)C(=O)N[C@@H](C(C)C)C(=O)N[C@@H](CCC(=O)O)C(=O)N[C@@H](CCCNC(=N)N)C(=O)N[C@@H](CC(N)=O)C(=O)N[C@@H](CO)C(=O)N2)NC(=O)CNC(=O)CNC(=O)[C@H](Cc2ccc(O)cc2)NC1=O [Bikunin (102-159)]
Ki ([1]; Table 3, Chymotrypsin (5 nM), AAPF-pNA (0.08 mM)): 0.24 nM
Ki ([1]; Table 4A, Bovine chymotrypsin (5 nM)): 0.2 nM
Ki ([2]; Table 3, Human Plasma Kallikrein (2.5 nM), PFR-AMC (0.3 mM)): 0.3 nM
Ki ([2]; Table 4A, Human Plasma Kallikrein (2.5 nM)): 0.3 nM
Ki ([2]; Table 4B, Human Plasma Kallikrein ([…] nM)): 0.7 nM
Ki [3]: 1.8 nM
Ki [4]: 323 nM
Ki [5]: 0.13 nM
Ki [6]: 274 nM
Ki [7]: 11000 nM

N=C(N)NC(=O)c1nc(Cl)c(N)nc1N [amiloride, reference compound]
Isc ([8]; 10 uM, apical, after trypsin): inhibited the majority of the current
TMV ([9]; 10 mM x 20 mins aerosol, 15 minutes after aerosol, FIG. 19): statistically significant increase in TMV
TMV [10]: 8.1±0.3 mm.min^−1
MCC [11]: significantly increase MCC

Aprotinin
sodium short circuit current ([12]; 5 ug/mL, FIG. 20): decrease sodium short circuit current
Isc ([8]; 20 ug/mL, 90 minutes after apical application): decreases sodium current
Isc ([8]; 20 ug/mL, 90 minutes after apical application, listed as aprotinin): inhibited Isc
Isc ([8]; 1 mg/mL in PBS, over a 100 minute period, FIG. 21): inhibited Isc
transepithelial Na+ transport [13]: reduce transepithelial Na^+ transport
transepithelial Na+ transport ([13]; listed as aprotinin): reduced transepithelial Na^+ transport

Des Pro2-Ser10-Arg15-Asp24-Thr26-Glu31-Asn41-Glu53-Aprotinin [Aprotinin double mutein]
sodium current ([12]; FIG. 20): dose dependently inhibited sodium current
sodium current ([12]; FIG. 20, listed as aprotinin double mutein): decrease sodium short circuit current
TMV ([9]; 10 ug, relative to HBSS, 1.5 to 2.5 hours following administration, FIG. 26): increased TMV

α1-PI: serpin-family serine protease inhibitor alpha(1)-protease inhibitor
effect on Na+ Isc ([12]; 50 ug.ml−1, normal HBE cells, further study): without a significant effect
antigen-induced reduction in TMV ([14]; 10 mg given 30 min before or 1 h after antigen challenge, 6 h after challenge): attenuated antigen-induced reduction in TMV
baseline TMV ([14]; administered on its own (no antigen challenge), over a 6 h period): no effect on baseline TMV
antigen-induced fall in TMV ([14]; given 6 h after antigen challenge, at 24 h after challenge): significant reversal of the antigen-induced fall in TMV
